Measurements as given in patent US11396493B2, “Amorphous pyrrolidine derivative as PPAR agonist and preparation method thereof” (GUANGDONG RAYNOVENT BIOTECH CO., LTD., priority 2017, dated 2022).

What was measured:
PPAR Alpha = molecular target: T1, PPAR Alpha (Homo sapiens, UniProt Q07869); test: PathHunter NHR protein interaction test, agonist mode, PPAR Alpha; assay type: cell-based
T1 sequence (Q07869 1-468): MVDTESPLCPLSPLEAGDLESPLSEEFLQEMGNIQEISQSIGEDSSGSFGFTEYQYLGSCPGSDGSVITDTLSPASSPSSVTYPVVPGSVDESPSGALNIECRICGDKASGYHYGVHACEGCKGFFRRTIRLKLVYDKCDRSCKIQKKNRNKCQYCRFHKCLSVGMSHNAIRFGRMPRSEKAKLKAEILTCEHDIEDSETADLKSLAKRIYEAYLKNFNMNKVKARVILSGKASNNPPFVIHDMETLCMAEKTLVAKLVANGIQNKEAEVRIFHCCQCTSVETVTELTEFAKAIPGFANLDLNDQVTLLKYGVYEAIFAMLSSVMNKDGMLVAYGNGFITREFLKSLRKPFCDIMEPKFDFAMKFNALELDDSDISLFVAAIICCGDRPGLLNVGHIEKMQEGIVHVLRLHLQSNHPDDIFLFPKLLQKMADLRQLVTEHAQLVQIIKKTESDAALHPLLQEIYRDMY
From the text: (§1) Principles of in Vitro Test of PPAR Agonist Activity
(§2) Nuclear Hormone Receptor (NHR) Test
(§3) PathHunter's NHR protein interaction and nuclear transfer test are used to detect the activation ability of nuclear hormone receptor in a uniform, non-imaging experiment. This technology is called as enzyme fragment complementation […], and is developed by DiscoverX.
(§4) NHR protein test is based on the detection of the protein-protein interaction between a standard length of NHR protein in an activated state and a nuclear fusion protein containing a steroid receptor co-activating peptide (SRCP) region and one or more standard LXXLL acting sequences.
(§5) NHR is labeled on the ProLink™ component of an EFC test system, and the SRCP region and the enzyme receptor component (EA) are fused and expressed in the nucleus. When bound to the ligand, the NHR will transfer to the nucleus and obtain the SRCP region in which a complementary effect is produced, thereby generating an equivalent amount of activated-galactosidase (-Gal), accompanied by the generation of chemical light signals. The benefits associated with this pathway include reduced incubation time of the compound, direct test of an NHR target, use of human NHR sequences with a standard length, and selection of some new classes of compounds based on the disruption of protein-protein interactions.
(§6) The NHR NT test detected the transfer of an NHR between the cytoplasmic and nuclear compartments. The receptor was labeled on the ProLink™ component of the EFC test system, while the EA and nuclear sequence were fused, thereby limiting the expression of EA on the nucleus. Nucleus transfer leaded to the complementary effect with EA, thereby generating one equivalent of activated galactosidase (-Gal), accompanied by the generation of chemical light signals.
(§7) 1. PathHunter NHR cell strains were spread from a frozen stock in accordance with standard operations.
(§8) 2. Cells were seeded onto a 384-well white cell plate of 20 uL/well, and incubated at 37° C. for an appropriate time prior to test. The culture medium contained activated carbon dextran with filtered serum to reduce the level of hormone expression.
(§9) Experiments of Agonist Mode:
(§10) 1. As for the measurement of an agonist activity, it is required to incubate the cells with the compound to induce a response.
2. […]
(§11) 2. The chemiluminescence signals generated by the microplate were to be detected by a PerkinElmer Envision instrument.
(§12) 1. The activity of the compound was analyzed by CIBS data analysis software (ChemInnovation, CA).
(§13) 2. For experiments of agonist mode, the percentage activity is calculated by the following formula: % activity=100%×(the mean RLU of the compound to be tested−the mean background RLU of the medium)/(the mean of maximum control of the ligand−the mean background RLU of the medium)

PPAR Delta = molecular target: T2, PPAR Delta (Homo sapiens, UniProt Q03181); test: PathHunter NHR protein interaction test, agonist mode, PPAR Delta; assay type: cell-based
T2 sequence (Q03181 1-441): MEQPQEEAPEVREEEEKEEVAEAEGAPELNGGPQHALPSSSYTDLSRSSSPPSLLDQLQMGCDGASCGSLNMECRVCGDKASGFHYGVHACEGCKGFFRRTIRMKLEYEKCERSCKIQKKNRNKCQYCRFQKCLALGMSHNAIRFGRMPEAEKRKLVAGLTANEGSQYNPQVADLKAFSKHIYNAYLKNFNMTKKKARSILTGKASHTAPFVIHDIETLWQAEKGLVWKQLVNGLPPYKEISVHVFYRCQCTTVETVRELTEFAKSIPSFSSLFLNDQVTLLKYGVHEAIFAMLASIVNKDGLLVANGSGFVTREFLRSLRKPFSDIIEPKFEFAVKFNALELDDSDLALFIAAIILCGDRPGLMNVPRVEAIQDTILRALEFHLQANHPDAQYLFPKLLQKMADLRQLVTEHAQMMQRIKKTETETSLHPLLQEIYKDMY
From the text: as §1, §2, §3, §4, §5, §6, §7, §8, §9, §10
2. […]
as §11, §12, §13

PPAR Gamma = molecular target: T3, PPAR Gamma (Homo sapiens, UniProt P37231); test: PathHunter NHR protein interaction test, agonist mode, PPAR Gamma; assay type: cell-based
T3 sequence (P37231 1-505): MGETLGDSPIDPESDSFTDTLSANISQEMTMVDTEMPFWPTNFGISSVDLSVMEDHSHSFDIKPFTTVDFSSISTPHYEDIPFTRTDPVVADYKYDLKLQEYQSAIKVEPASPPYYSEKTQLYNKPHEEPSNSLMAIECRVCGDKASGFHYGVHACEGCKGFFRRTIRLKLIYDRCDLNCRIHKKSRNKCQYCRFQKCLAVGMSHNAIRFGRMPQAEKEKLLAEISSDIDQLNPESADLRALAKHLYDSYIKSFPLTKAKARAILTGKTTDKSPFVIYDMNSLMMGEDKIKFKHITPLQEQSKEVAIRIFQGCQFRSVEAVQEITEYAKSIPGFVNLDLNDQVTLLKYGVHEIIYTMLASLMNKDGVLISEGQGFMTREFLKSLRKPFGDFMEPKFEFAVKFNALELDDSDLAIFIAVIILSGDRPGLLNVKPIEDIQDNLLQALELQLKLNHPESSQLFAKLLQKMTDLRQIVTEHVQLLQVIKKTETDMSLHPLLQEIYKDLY
From the text: as §1, §2, §3, §4, §5
The NHR NT test detected the transfer of an NHR between the cytoplasmic and nuclear compartments. […]
as §11, §12, §13

[1] = test system: CCl4-induced C57BL/6 mouse acute liver injury; test: CCl4-induced C57BL/6 mouse acute liver injury experiment; assay type: in vivo; conditions: no data shown
[2] = test system: MCD diet-induced db/db mouse NASH; test: MCD diet-induced db/db mouse NASH model; assay type: in vivo; conditions: no data shown

EC50 (PPAR Alpha; agonist mode): < 100 nM
activation effect on PPAR Alpha receptor (PPAR Alpha; summary of Table 5): significant activation effect
EC50 (PPAR Delta; agonist mode): < 100 nM
activation effect on PPAR Delta receptor (PPAR Delta; summary of Table 5): significant activation effect
EC50 (PPAR Gamma; agonist mode): > 250 nM
activation effect on PPAR Gamma receptor (PPAR Gamma; summary of Table 5): selective activation effect
Structure (SMILES): CSc1ccc(C(=O)[C@@H]2CN(C(=O)Oc3ccccc3)C[C@H]2Cc2cc(C)c(OC(C)(C)C(=O)O)c(C)c2)cc1 [Compound of formula (I)]
effect on liver injury [1]: significantly improving effect
effect on NAS Score [2]: significantly improving effect
effect on liver fibrosis [2]: significantly improving effect
